Results taken from patent EP0726261A1, “Herbidical 1,2,4 thiadiazoles” (American Cyanamid Company, priority 1995, dated 1996).

Legend:
Assay type in all cases: in vivo
Oryza sativa [1] = experiment: Herbicidal activity, postemergence test (Example 66); design: key: A rating of 0 indicates growth as untreated control; a rating of 9 indicates death; settings: post; 1000 g/ha; assessed visually twenty days after spraying
Method: (§1) To evaluate their herbicidal activity, compounds according to the invention are tested using a representative range of plants: ZEAMX Zea mays ORYSA Oryza sativa GLXMA Glycine max BEAVA Beta vulgaris LIUUT Linum usitatissimum AVEFA Avena fatua ECHCG Echinochloa crus-galli SINAL Sinapsis alba
(§2) The tests fall into two categories, preemergence and postemergence. The preemergence tests involve spraying a liquid formulation of the compound onto the soil in which the seeds of the plant species mentioned above have recently been sown. The postemergence tests involve spraying a liquid formulation of the compound onto seedling plants of the above species.
(§3) The soil used in the tests is a prepared horticultural loam.
(§4) The formulations used in the tests are prepared from solutions of the test compounds in acetone containing 0.4% by weight of an alkylphenol/ethylene oxide condensate available under the trademark TRITON X-155. These acetone solutions are diluted with water and the resulting formulations applied at dosage levels corresponding to 1000 g of active material per hectare in a volume equivalent to 900 litres per hectare.
(§5) In the preemergence tests, untreated sown soil, and in the postemergence tests, untreated soil bearing seedling plants, are used as controls.
(§6) The herbicidal effects of the test compounds are assessed visually twenty days after spraying the foliage and the soil and are recorded on a 0-9 scale. A rating of 0 indicates growth as untreated control, a rating of 9 indicates death. An increase of 1 unit on the linear scale approximates to an 11% increase in the level of effect.

Echinochloa crus-galli [2] = experiment: as above; design: key: A rating of 0 indicates growth as untreated control; a rating of 9 indicates death; settings: post; 1000 g/ha; assessed visually twenty days after spraying
Method: as §1, §2, §3, §4, §5, §6

Beta vulgaris [3] = experiment: as above; design: key: A rating of 0 indicates growth as untreated control; a rating of 9 indicates death; settings: post; 1000 g/ha; assessed visually twenty days after spraying
Method: as §1, §2, §3, §4, §5, §6

Zea mays [4] = experiment: as above; design: key: A rating of 0 indicates growth as untreated control; a rating of 9 indicates death; settings: post; 1000 g/ha; assessed visually twenty days after spraying
Method: as §1, §2, §3, §4, §5, §6

Sinapsis alba [5] = experiment: as above; design: key: A rating of 0 indicates growth as untreated control; a rating of 9 indicates death; settings: post; 1000 g/ha; assessed visually twenty days after spraying
Method: as §1, §2, §3, §4, §5, §6

Linum usitatissimum [6] = experiment: as above; design: key: A rating of 0 indicates growth as untreated control; a rating of 9 indicates death; settings: post; 1000 g/ha; assessed visually twenty days after spraying
Method: as §1, §2, §3, §4, §5, §6

Avena fatua [7] = experiment: as above; design: key: A rating of 0 indicates growth as untreated control; a rating of 9 indicates death; settings: post; 1000 g/ha; assessed visually twenty days after spraying
Method: as §1, §2, §3, §4, §5, §6

Glycine max [8] = experiment: as above; settings: post; 1000 g/ha; assessed visually twenty days after spraying
Method: as §1, §2, §3, §4, §5, §6

Oryza sativa [9] = experiment: Herbicidal activity, preemergence test (Example 66); design: key: A rating of 0 indicates growth as untreated control; a rating of 9 indicates death; settings: pre; 1000 g/ha; assessed visually twenty days after spraying
Method: as §1, §2, §3, §4, §5, §6

Echinochloa crus-galli [10] = experiment: as above; design: key: A rating of 0 indicates growth as untreated control; a rating of 9 indicates death; settings: pre; 1000 g/ha; assessed visually twenty days after spraying
Method: as §1, §2, §3, §4, §5, §6

Beta vulgaris [11] = experiment: as above; design: key: A rating of 0 indicates growth as untreated control; a rating of 9 indicates death; settings: pre; 1000 g/ha; assessed visually twenty days after spraying
Method: as §1, §2, §3, §4, §5, §6

Glycine max [12] = experiment: as above; design: key: A rating of 0 indicates growth as untreated control; a rating of 9 indicates death; settings: pre; 1000 g/ha; assessed visually twenty days after spraying
Method: as §1, §2, §3, §4, §5, §6

Zea mays [13] = experiment: as above; design: key: A rating of 0 indicates growth as untreated control; a rating of 9 indicates death; settings: pre; 1000 g/ha; assessed visually twenty days after spraying
Method: as §1, §2, §3, §4, §5, §6

Sinapsis alba [14] = experiment: as above; design: key: A rating of 0 indicates growth as untreated control; a rating of 9 indicates death; settings: pre; 1000 g/ha; assessed visually twenty days after spraying
Method: as §1, §2, §3, §4, §5, §6

Linum usitatissimum [15] = experiment: as above; design: key: A rating of 0 indicates growth as untreated control; a rating of 9 indicates death; settings: pre; 1000 g/ha; assessed visually twenty days after spraying
Method: as §1, §2, §3, §4, §5, §6

Avena fatua [16] = experiment: as above; design: key: A rating of 0 indicates growth as untreated control; a rating of 9 indicates death; settings: pre; 1000 g/ha; assessed visually twenty days after spraying
Method: as §1, §2, §3, §4, §5, §6

Compound	herbicidal effects on a 0-9 scale, ORYSA (Oryza sativa [1])	herbicidal effects on a 0-9 scale, ECHCG (Echinochloa crus-galli [2])	herbicidal effects on a 0-9 scale, BEAVA (Beta vulgaris [3])	herbicidal effects on a 0-9 scale, ZEAMX (Zea mays [4])	herbicidal effects on a 0-9 scale, SINAL (Sinapsis alba [5])	herbicidal effects on a 0-9 scale, LIUUT (Linum usitatissimum [6])	herbicidal effects on a 0-9 scale, AVEFA (Avena fatua [7])	herbicidal effects on a 0-9 scale, GLXMA (Glycine max [8])	herbicidal effects on a 0-9 scale, ORYSA (Oryza sativa [9])	herbicidal effects on a 0-9 scale, ECHCG (Echinochloa crus-galli [10])	herbicidal effects on a 0-9 scale, BEAVA (Beta vulgaris [11])	herbicidal effects on a 0-9 scale, GLXMA (Glycine max [12])	herbicidal effects on a 0-9 scale, ZEAMX (Zea mays [13])	herbicidal effects on a 0-9 scale, SINAL (Sinapsis alba [14])	herbicidal effects on a 0-9 scale, LIUUT (Linum usitatissimum [15])	herbicidal effects on a 0-9 scale, AVEFA (Avena fatua [16])
CC(C)Cc1nsc(C(=O)NC(C)c2cccs2)n1 (racemic) [Example 12, (R/S)-3-Isobutyl-[1,2,4]thiadiazole-5-carboxylic acid, [1-(2-thienyl)ethyl]amide]	0	9	8	0	9	8	2	5	0	5	5	0	0	5	2	0
CC(NC(=O)c1nc(-c2ccc(F)cc2)ns1)c1cccs1 (racemic) [Example 15, (R/S)-3-(4-Fluorophenyl)-[1,2,4]thiadiazole-5-carboxylic acid, [1-(2-thienyl)ethyl]amide]	0	7	9	3	9	7	4	7	0	0	0	0	0	0	0	0
CC(NC(=O)c1nc(-c2cccc(C(F)(F)F)c2)ns1)c1cccs1 (racemic) [Example 21, (R/S)-3-(3-Trifluoromethylphenyl)-[1,2,4]thiadiazole-5-carboxylic acid, [1-(2-thienyl)ethyl]amide]	0	8	8	0	9	7	7	7	0	0	0	0	0	0	0	0
CC(NC(=O)c1nsc(-c2ccccc2)n1)c1cccs1 (racemic) [Example 22]	2	5	9	2	7	6	4	6	0	2	2	0	1	3	0	0
CC(NC(=O)c1nsc(-c2ccc(Cl)cc2)n1)c1cccs1 (racemic) [Example 23, (R/S)-5-(4-Chlorophenyl)-[1,2,4]thiadiazole-3-carboxylic acid, [1-(2-thienyl)ethyl]amide]	0	8	9	0	9	7	4	7	0	0	0	0	0	0	0	0
C[C@H](NC(=O)c1nc(-c2ccccc2)ns1)c1ccccc1 [Example 5]	0	8	5	2	9	7	6	4	0	0	4	0	0	0	0	0
CC(C)(C)c1nsc(C(=O)NCc2cccs2)n1 [Example 7]	0	0	8	0	8	4	0	3	0	0	0	0	0	0	0	0
